How the values were obtained:
[1] = tested on: wild-type 3′UTR reporter; test: Luciferase 3'UTR reporter expression following irinotecan exposure; type: cell-based
Description: (§1) The disclosure provides a method of predicting the response of a cancer cell to the combination of a chemotherapy and monoclonal antibody therapy, including detecting a mutation in let-7 complementary site LCS6 of human KRAS in a patient sample, wherein the mutation is a SNP comprising a uracil (U) or thymine (T) to guanine (G) transition at position 4 of LCS6, and wherein the presence of the mutation indicates a resistance to the combination. In certain embodiments of this method, the cancer cell is a colorectal cancer (CRC) cell. The cancer cell may be evaluated in vitro or ex vivo. […] The chemotherapy may be a cytotoxic agent. A non-limiting example of the cytotoxic agent is irinotecan.
(§2) FIG. 24B is a graph depicting the fold repression (expressed as KRAS variant/KRAS wild type) as a function of irinotecan concentration, when cancer cells are treated with irinotecan.

[2] = tested on: KRAS-variant 3′UTR reporter; test: as above; type: cell-based
Description: as §1, §2

Question: With `CCc1c2c(nc3ccc(OC(=O)N4CCC(N5CCCCC5)CC4)cc13)-c1cc3c(c(=O)n1C2)COC(=O)[C@]3(O)CC` [irinotecan] as the compound, how does the “Reporter expression following irinotecan exposure” value [1] read?
Answer: no change

Question: And the “Reporter expression following irinotecan exposure” value [2]?
Answer: statistically-significant increase

Reference: patent US20130252832A1, “KRAS Variant and Tumor Biology” (Yale University, priority 2012, published 2013)
